Test results reported in PubChem BioAssay AID1259345.
Calls of active or inactive are those of the source.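 How the source made its calls: active means IC50 below a set limit; inactive means the rest.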

Target: A2780 TERC promoter luciferase reporter, 16 h
Test: modulation of TERC promoter-driven luciferase – cell-based, luciferase reporter, human, SAR follow-up (AID 1259345)

Compound | IC50
Cc1nc2cc(-c3ccc(C#CCO)cc3)nn2c(C)c1CCC(=O)O | inactive
Cc1nc2cc(-c3cccc(Br)c3)nn2c(C)c1CCC(=O)O | inactive
